Species on record: Rattus norvegicus
Assay: DrugMatrix - Regimen: Daily Repeat
Type: toxicity, organism-based, Sprague-Dawley
Design: regimen Daily Repeat, gender Male, age 6-8 weeks
Settings: in vivo, sc, route subcutaneous, […]; for ABSOLUTE BASOPHIL / ABSOLUTE EOSINOPHIL / ABSOLUTE LYMPHOCYTE / ABSOLUTE MONOCYTE / ABSOLUTE SEGMENTED NEUTROPHIL / BASOPHIL / EOSINOPHIL / ERYTHROCYTE COUNT / HEMATOCRIT / HEMOGLOBIN / LEUKOCYTE COUNT / LYMPHOCYTE / MEAN CORPUSCULAR HEMOGLOBIN / MEAN CORPUSCULAR VOLUME / MONOCYTE / NEUTROPHIL / NUCLEATED RED BLOOD CELLS / PLATELET COUNT: tissue Blood; for ALANINE AMINOTRANSFERASE / ALBUMIN / ALKALINE PHOSPHATASE / ASPARTATE AMINOTRANSFERASE / BLOOD UREA NITROGEN / CARBON DIOXIDE / CHLORIDE / CHOLESTEROL / CREATINE PHOSPHOKINASE / CREATININE / GLUCOSE / LACTATE DEHYDROGENASE / LIPASE / PHOSPHORUS / POTASSIUM / SODIUM / TOTAL BILIRUBIN / TOTAL PROTEIN / URIC ACID: tissue Plasma
[1] = 0 mg/kg, 72 h, dose level Control, time 3 day
[2] = 0 mg/kg, 120 h, dose level Control, time 5 day
[3] = 50 mg/kg, 72 h, dose level Low, time 3 day

CCCCCCCCc1ccc(O)cc1 [4-OCTYLPHENOL]
ABSOLUTE BASOPHIL [1]: 0 CELLS/uL
ABSOLUTE EOSINOPHIL [1]: 0 CELLS/uL
ABSOLUTE LYMPHOCYTE [1]: 9782.33 CELLS/uL
ABSOLUTE MONOCYTE [1]: 114.67 CELLS/uL
ABSOLUTE SEGMENTED NEUTROPHIL [1]: 753 CELLS/uL
BASOPHIL [1]: 0%
EOSINOPHIL [1]: 0%
ERYTHROCYTE COUNT [1]: 5.14 x10E6/uL
HEMATOCRIT [1]: 32.12%
HEMOGLOBIN [1]: 13.13 G/DL
LEUKOCYTE COUNT [1]: 10.65 x10E3/uL
LYMPHOCYTE [1]: 91.83%
MEAN CORPUSCULAR HEMOGLOBIN [1]: 25.83 pg
MEAN CORPUSCULAR VOLUME [1]: 62.43 fL
MONOCYTE [1]: 1%
NEUTROPHIL [1]: 7.17%
NUCLEATED RED BLOOD CELLS [1]: 0.17 /100WBC
PLATELET COUNT [1]: 657.83 x10E3/uL
ALANINE AMINOTRANSFERASE [1]: 60.33 u/L
ALBUMIN [1]: 3.83 G/DL
ALKALINE PHOSPHATASE [1]: 366.33 u/L
ASPARTATE AMINOTRANSFERASE [1]: 104.5 u/L
BLOOD UREA NITROGEN [1]: 12.33 mg/dL
CARBON DIOXIDE [1]: 23.17 mmol/L
CHLORIDE [1]: 96.67 MEQ/L
CHOLESTEROL [1]: 73.17 mg/dL
CREATINE PHOSPHOKINASE [1]: 545.83 u/L
CREATININE [1]: 0.26 mg/dL
GLUCOSE [1]: 144.33 mg/dL
LACTATE DEHYDROGENASE [1]: 147.5 u/L
LIPASE [1]: 9.33 u/L
PHOSPHORUS [1]: 10.83 mg/dL
POTASSIUM [1]: 5.68 MEQ/L
SODIUM [1]: 138.83 MEQ/L
TOTAL BILIRUBIN [1]: 0.17 mg/dL
TOTAL PROTEIN [1]: 5.42 G/DL
URIC ACID [1]: 0.65 mg/dL
ABSOLUTE BASOPHIL [2]: 0 CELLS/uL
ABSOLUTE EOSINOPHIL [2]: 43.33 CELLS/uL
ABSOLUTE LYMPHOCYTE [2]: 12883 CELLS/uL
ABSOLUTE MONOCYTE [2]: 166.83 CELLS/uL
ABSOLUTE SEGMENTED NEUTROPHIL [2]: 1290.17 CELLS/uL
BASOPHIL [2]: 0%
EOSINOPHIL [2]: 0.33%
ERYTHROCYTE COUNT [2]: 5.79 x10E6/uL
HEMATOCRIT [2]: 36.37%
HEMOGLOBIN [2]: 14.17 G/DL
LEUKOCYTE COUNT [2]: 14.38 x10E3/uL
LYMPHOCYTE [2]: 89.17%
MEAN CORPUSCULAR HEMOGLOBIN [2]: 24.48 pg
MEAN CORPUSCULAR VOLUME [2]: 62.83 fL
MONOCYTE [2]: 1.17%
NEUTROPHIL [2]: 9.33%
NUCLEATED RED BLOOD CELLS [2]: 0.5 /100WBC
PLATELET COUNT [2]: 1267.33 x10E3/uL
ALANINE AMINOTRANSFERASE [2]: 53.5 u/L
ALBUMIN [2]: 3.82 G/DL
ALKALINE PHOSPHATASE [2]: 342.33 u/L
ASPARTATE AMINOTRANSFERASE [2]: 83.67 u/L
BLOOD UREA NITROGEN [2]: 13.17 mg/dL
CARBON DIOXIDE [2]: 28.17 mmol/L
CHLORIDE [2]: 101.5 MEQ/L
CHOLESTEROL [2]: 70.83 mg/dL
CREATINE PHOSPHOKINASE [2]: 656.67 u/L
CREATININE [2]: 0.17 mg/dL
GLUCOSE [2]: 171.33 mg/dL
LACTATE DEHYDROGENASE [2]: 169 u/L
LIPASE [2]: 9.17 u/L
PHOSPHORUS [2]: 12.88 mg/dL
POTASSIUM [2]: 6.54 MEQ/L
SODIUM [2]: 141.2 MEQ/L
TOTAL BILIRUBIN [2]: 0.18 mg/dL
TOTAL PROTEIN [2]: 5.68 G/DL
URIC ACID [2]: 2.02 mg/dL
ABSOLUTE BASOPHIL [3]: 0 CELLS/uL
ABSOLUTE EOSINOPHIL [3]: 58 CELLS/uL
ABSOLUTE LYMPHOCYTE [3]: 8002.33 CELLS/uL
ABSOLUTE MONOCYTE [3]: 124.67 CELLS/uL
ABSOLUTE SEGMENTED NEUTROPHIL [3]: 648.33 CELLS/uL
BASOPHIL [3]: 0%
EOSINOPHIL [3]: 0.67%
ERYTHROCYTE COUNT [3]: 5.33 x10E6/uL
HEMATOCRIT [3]: 34.07%
HEMOGLOBIN [3]: 13.23 G/DL
LEUKOCYTE COUNT [3]: 8.83 x10E3/uL
LYMPHOCYTE [3]: 90%
MEAN CORPUSCULAR HEMOGLOBIN [3]: 24.83 pg
MEAN CORPUSCULAR VOLUME [3]: 63.87 fL
MONOCYTE [3]: 1.67%
NEUTROPHIL [3]: 7.67%
NUCLEATED RED BLOOD CELLS [3]: 0 /100WBC
PLATELET COUNT [3]: 876 x10E3/uL
ALANINE AMINOTRANSFERASE [3]: 50.33 u/L
ALBUMIN [3]: 3.9 G/DL
ALKALINE PHOSPHATASE [3]: 340 u/L
ASPARTATE AMINOTRANSFERASE [3]: 88 u/L
BLOOD UREA NITROGEN [3]: 10 mg/dL
CARBON DIOXIDE [3]: 24.67 mmol/L
CHLORIDE [3]: 94 MEQ/L
CHOLESTEROL [3]: 67.33 mg/dL
CREATINE PHOSPHOKINASE [3]: 672.33 u/L
CREATININE [3]: 0.22 mg/dL
GLUCOSE [3]: 130.67 mg/dL
LACTATE DEHYDROGENASE [3]: 143.33 u/L
LIPASE [3]: 9.67 u/L
PHOSPHORUS [3]: 11.07 mg/dL
POTASSIUM [3]: 6.18 MEQ/L
SODIUM [3]: 136.97 MEQ/L
TOTAL BILIRUBIN [3]: 0.1 mg/dL
TOTAL PROTEIN [3]: 5.4 G/DL
URIC ACID [3]: 0.83 mg/dL
